For assay [1], the system named is CD4+ T-cells. Type of assay: cell-based, human. The following applies: for effect of the change on the percent of responders to the modified epitope sequence: epitope #49 substitution, 69 donors.
Assay [2] has as its system CD4+ T-cells. Description: I-MUNE assay: proliferation of CD4+ T-cells with differentiated dendritic cells in response to beta-lactamase 15-mer peptides. Format: cell-based, human.
Assay [3] deals with HLA-DRB1 and DQB1 antigens. Description: HLA association with responses to epitope peptides. Details: species or system human. As to the method:
HLA-DR and DQ types were analyzed for associations with responses to defined epitope peptides. A Chi-squared analysis, with one degree of freedom was used to determine significance. Where an allele was present in both the responder and non-responder pools, a relative risk was calculated.
The HLA-DR and DQ expression of 65 of the donors tested in both rounds of assay testing described above were assessed using a commercially available PCR-based HLA typing kit (Bio-Synthesis). […] Wherever the HLA antigen was present in both reactive and non-reactive donors, a relative risk (i.e., the increased or decreased likelihood of presenting a reaction conditioned on the presence of the HLA antigen) was computed. […] In addition, the mean and standard error of quantitative response for each peptide were determined.
The magnitude of the proliferative response to an individual peptide in responders and non-responders expressing epitope-associated HLA alleles were also be analyzed. An “individual responder to the peptide” is defined by a stimulation index of greater than 2.95.

“GTTRSYANASIGLFG (variant of SEQ ID NO82) [Peptide L149S, peptide #49 with the substitution L149S]”: in assay [1], the “effect on the epitope response rate” value was “had an effect”.
Turning to “GTTRLYANASLGLFG (beta-lactamase epitope) [Peptide I155L, peptide #49 with the substitution I155L]”, the “effect of the change on the percent of responders to the modified epitope sequence” value in assay [1] was “little effect”.
The same measure, in the same setting: in the case of “GTTRLYANASVGLFG (beta-lactamase epitope) [Peptide I155V, peptide #49 with the substitution I155V]” it was “increased the percent of responders”; in that of “GTTRLYANASFGLFG (beta-lactamase epitope) [Peptide I155F, peptide #49 with the substitution I155F]”, “little effect”.
As to “#36 (MLDLATYTAGGLPLQ; listed as Enterobacter cloacae)”, the “response (percent responders)” value in assay [2] is reported as 12.11%. In assay [3] (donors reactive to the peptide), the “quantitative response of DR1+ responders” value was 7.8 and the “quantitative response of DR1- responders” value is 4.42.
“#107 (TGGFGSYVAFIPEKQ; listed as Enterobacter cloacae)”: the “response (percent responders)” value in assay [2] stood at 12.11%. In assay [3] (among non-responders), the “response of DR13 non-responders lower than the other genotypes” value is 23%. In assay [3] (donors reactive to the peptide), the “increase of quantitative response in DR1+ relative to DR1- responders” value is given as 27%, the “quantitative response of DR1+ responders” value amounted to 5.4 and the “quantitative response of DR1- responders” value came out at 4.2.
For the substance tetanus toxoid [reference compound], in assay [2] (approximately 5 Lf/mL), the “positive control proliferative response” value is “robust positive control responses”.

The record behind these values is patent US20050164308A1, “Beta-lactamase CD4+ T-cell epitopes” (priority 2003, published 2005).
